Reference: PMC11079024, “Identification of a family of species-selective complex I inhibitors as potential anthelmintics” (Nature Communications, 2024)
Where two headings read alike, the source gives them in different places.

How the values were obtained:
[1] = tested on: P. hermaphrodita complex I; test: In vitro complex I activity assay, P. hermaphrodita mitochondria; format: biochemical, Phasmarhabditis hermaphrodita; conditions: purified mitochondria
Protocol: (§1) Mitochondria were isolated from the following free-living nematode strains: C. elegans—N2, CB3474, ECA882, ECA917, ECA1075, ECA1080; C. briggsae—AF16; P. pacificus—PS312; and P. hermaphrodita—B178. With the exception of the P. hermaphrodita strain B178, adult worms of each strain were grown in bulk through liquid culture to obtain mitochondria in sufficient quantities. Due to poor growth in liquid media, mixed stage populations of P. hermaphrodita were washed off and collected from NGM plates seeded with OP50. The isolation of mitochondria from all free-living nematode strains followed the protocol previously outlined in Burns et al.[24]. In brief, a 1 L saturated culture of E. coli HB101 was concentrated 20-fold in 50 mL complete S-medium. ~500,000 L1 worms synchronized from an embryo preparation performed the day prior were added to the S-media/HB101 suspension and grown to adulthood over the course of 3.5 days at 20 °C with shaking at 165 rpm. Following growth, worms were collected in 10 ×15 mL conical tubes and washed 7 times in M9 buffer. Worm suspensions were then combined into a single 15 mL conical tube and diluted to a final volume of 15 mL with M9 buffer. 1 mL aliquots of worm suspension were then distributed to 15 × 1.5 mL screw-cap microcentrifuge tubes and were pelleted at 500 g for 1 min. Excess M9 was aspirated without disturbing the worm pellet. 600 μL ice-cold isolate buffer A (250 mM sucrose, 10 mM Tris (pH 7.5), 1 mM EDTA, 1 mM PMSF (freshly prepared)) and 300 μL cold glass beads were then added to each tube. Tubes were incubated on ice for 10 min, and the worms were then lysed by bead beating (6 x 30 s, with 1 min cooling intervals). Tubes containing worm lysate were centrifuged at 1,000 g for 10 min at 4 °C and the supernatant was transferred to 15 new microcentrifuge tubes on ice. The tubes were centrifuged a second time at 1,000 g for 10 min at 4 °C and the supernatant was once again transferred to 15 new microcentrifuge tubes on ice. These tubes were then centrifuged at 16,000 g for 10 min at 4 °C. The resulting mitochondrial pellet was washed twice by re-suspension in 300 μL of ice-cold isolate buffer B (250 mM sucrose, 10 mM Tris (pH 7.5), 1 mM EDTA). Following the final wash, isolation buffer was aspirated from each tube and the pellets were flash-frozen in ethanol/dry ice and stored at −80 °C until needed.
(§2) The enzymatic activities of individual ETC complexes (I-IV) were assessed spectrophotometrically in isolated mitochondria using a Varioskan LUX Multimode plate reader (ThermoFisher Scientific). Mitochondrial pellets previously isolated were thawed on ice and resuspended in ice-cold isolation buffer (250 mM sucrose, 10 mM Tris (pH 7.5), 1 mM EDTA). The BCA assay (Walker, 1994) was used to quantify the protein concentration of mitochondria suspensions; solutions were diluted to a concentration of 0.2 mg/mL for use in all assays. For the complex I assay, mitochondria pellets were freeze-thawed on ice three times to increase enzyme accessibility. […] 20 μL mitochondria suspension was then added/mixed with a pipette to initiate the reaction. Immediately following the addition of mitochondria, absorbance was measured (complex I and II: 600 nm; complex III and IV: 550 nm) in 30 s intervals over 15 min. Enzymatic activity was determined in each reaction by plotting absorbance versus time and calculating the slope of the curve during the initial linear phase of the reaction. […] Percent activity of each complex was calculated by dividing the enzyme-specific activity of each well by the enzyme-specific activity of the corresponding solvent controls.
(§3) Chemical solutions were prepared in complex I assay buffer composed of 25 mM KPi buffer (pH 7.5), 3 mg/mL bovine serum albumin (BSA), 80 μM NADH, 60 μM decylubiquinone, 160 μM DCIP, 2 μM antimycin A and 2 mM KCN. […]

P. pacificus complex I = P. pacificus complex I (Pristionchus pacificus, UniProt A0A454XZ18+A0A8R1Z3U8+A4UAP3); test: In vitro complex I activity assay, P. pacificus mitochondria; format: biochemical; conditions: for IC50: purified mitochondria
Protocol: as §1, §2, §3

[2] = P. pacificus mitochondria, Mean, read-out: in vitro complex I activity relative to solvent control
[3] = P. pacificus mitochondria, single replicate, read-out: in vitro complex I activity relative to solvent control
[4] = P. pacificus mitochondria, Mean of replicates, read-out: in vitro complex I activity relative to solvent control

Cc1ccccc1OCCCCn1cnc2ccccc21 [Compound 7732524]
IC50 [1]: 0.0687 µM | remaining activity at 0.0001 µM (P. pacificus complex I; [2]): 87.6% | remaining activity at 0.0001 µM (P. pacificus complex I; [3]): 93.9% | remaining activity at 0.0005 µM (P. pacificus complex I; [2]): 88.6% | remaining activity at 0.001 µM (P. pacificus complex I; [2]): 75.8% | remaining activity at 0.0025 µM (P. pacificus complex I; [2]): 97.4% | remaining activity at 0.005 µM (P. pacificus complex I; [2]): 100% | remaining activity at 0.013 µM (P. pacificus complex I; [2]): 85.8% | remaining activity at 0.025 µM (P. pacificus complex I; [2]): 73.7% | remaining activity at 0.063 µM (P. pacificus complex I; [2]): 46.6% | remaining activity at 0.125 µM (P. pacificus complex I; [2]): 24.7% | remaining activity at 0.313 µM (P. pacificus complex I; [2]): 8.23% | remaining activity at 0.625 µM (P. pacificus complex I; [2]): 11.5% | remaining activity at 1.5 µM (P. pacificus complex I; [2]): 9.66% | remaining activity at 3 µM (P. pacificus complex I; [2]): 9.9% | remaining activity at 15 µM (P. pacificus complex I; [2]): 16.2% | remaining activity at 15 µM (P. pacificus complex I; [3]): 15.9% | remaining activity at 37.5 µM (P. pacificus complex I; [2]): 16.1% | remaining activity at 75 µM (P. pacificus complex I; [2]): 7.58% | IC50 (P. pacificus complex I): 0.0562 µM

CC(C)Cc1ccc(C(C)c2nc3ccccc3n2C)cc1 (centres unmarked) [NPD8790]
IC50 [1]: 1.1 µM | remaining activity at 0.06 µM (P. pacificus complex I; P. pacificus mitochondria, 0.06 µM, Mean of replicates, read-out: in vitro complex I activity relative to solvent control): 105% | remaining activity at 0.13 µM (P. pacificus complex I; P. pacificus mitochondria, 0.13 µM, Mean of replicates, read-out: in vitro complex I activity relative to solvent control): 88% | remaining activity at 0.313 µM (P. pacificus complex I; [4]): 82% | remaining activity at 0.625 µM (P. pacificus complex I; [4]): 75.5% | remaining activity at 1.5 µM (P. pacificus complex I; [4]): 68.1% | remaining activity at 3 µM (P. pacificus complex I; [4]): 49.1% | remaining activity at 15 µM (P. pacificus complex I; [4]): 21.4% | remaining activity at 37.5 µM (P. pacificus complex I; [4]): 16.3% | remaining activity at 75 µM (P. pacificus complex I; [4]): 11.3% | remaining activity at 0.0001 µM (P. pacificus complex I; [2]): 85.3% | remaining activity at 0.0001 µM (P. pacificus complex I; [3]): 79.8% | remaining activity at 0.0005 µM (P. pacificus complex I; [2]): 88.9% | remaining activity at 0.0005 µM (P. pacificus complex I; [3]): 82.3% | remaining activity at 0.001 µM (P. pacificus complex I; [2]): 112% | remaining activity at 0.0025 µM (P. pacificus complex I; [2]): 110% | remaining activity at 0.005 µM (P. pacificus complex I; [2]): 117% | remaining activity at 0.013 µM (P. pacificus complex I; [2]): 105% | remaining activity at 0.025 µM (P. pacificus complex I; [2]): 107% | remaining activity at 0.063 µM (P. pacificus complex I; [2]): 105% | remaining activity at 0.125 µM (P. pacificus complex I; [2]): 88% | remaining activity at 0.313 µM (P. pacificus complex I; [2]): 82% | remaining activity at 0.313 µM (P. pacificus complex I; [3]): 71.1% | remaining activity at 0.625 µM (P. pacificus complex I; [2]): 75.5% | remaining activity at 1.5 µM (P. pacificus complex I; [2]): 68.1% | remaining activity at 3 µM (P. pacificus complex I; [2]): 49.1% | remaining activity at 15 µM (P. pacificus complex I; [2]): 21.4% | remaining activity at 37.5 µM (P. pacificus complex I; [2]): 16.3% | remaining activity at 75 µM (P. pacificus complex I; [2]): 11.3% | IC50 (P. pacificus complex I): 2.1 µM
